One may read the Ki as a measure of affinity in units of concentration, obtained from inhibition or displacement.

Experimental findings from patent US9453023B2, “Substituted phenyl cycloalkyl pyrrolidine (piperidine) spirolactams and amides, preparation and therapeutic use thereof” (SANOFI, priority 2010, dated 2016) are described below.

rhesus (Macacca Mulatta) H3 receptor, sequence (Q865E1 1-445): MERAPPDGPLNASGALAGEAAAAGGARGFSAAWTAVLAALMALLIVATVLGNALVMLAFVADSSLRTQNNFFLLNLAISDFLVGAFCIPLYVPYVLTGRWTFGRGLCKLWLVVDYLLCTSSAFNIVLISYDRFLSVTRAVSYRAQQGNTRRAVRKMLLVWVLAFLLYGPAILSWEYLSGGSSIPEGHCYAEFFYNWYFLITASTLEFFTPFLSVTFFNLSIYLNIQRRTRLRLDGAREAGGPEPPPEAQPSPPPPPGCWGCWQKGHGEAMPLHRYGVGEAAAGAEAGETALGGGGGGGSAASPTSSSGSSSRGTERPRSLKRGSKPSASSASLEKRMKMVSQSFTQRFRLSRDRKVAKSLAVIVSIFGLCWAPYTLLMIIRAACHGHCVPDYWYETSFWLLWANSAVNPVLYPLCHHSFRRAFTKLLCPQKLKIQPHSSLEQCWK

The target of the test is rhesus (Macacca Mulatta) H3 receptor (Macaca mulatta, UniProt Q865E1). Kind of test: Rhesus H3 radioligand binding assay ([3H]-Methylhistamine, WGA SPA). Set-up: species or system rhesus monkey (Macacca Mulatta). The settings on record: displacement of [3H]-Methylhistamine (2 nM) from rhesus H3 receptor membranes; Cheng-Prusoff. On the procedure:
(Genbank #AY231164). Stably transfected cultures were amplified in tissue culture flasks by standard tissue culture methods and induced to express rhesus H3 by exposure to 500 ng/ml tetracycline (Cellgro) for 24 hours. After induction, cells were dissociated from flasks utilizing Cell Stripper (Cellgro). Cells were centrifuged (1K×g, 5 min) and pellet frozen in an ethanol-dry ice bath to disrupt cell membranes. Frozen cell pellet was re-suspended in 5 mM HEPES (pH 7.4, Invitrogen) at 10 ml/1000 cm2 of harvested cells. The cell suspension was drawn through an 18 gauge needle (2-3×) followed by a 23 gauge needle (2-3×) to further disrupt cell membranes. The cell suspension was centrifuged (40K×g, 30 min). Cell membrane pellet was re-suspended in 5 mM HEPES (pH 7.4, Invitrogen) at a final protein concentration of 10 mg/ml. Rhesus H3 membranes were stored under liquid nitrogen prior to use in [3H]-Methylhistamine and GTPγS radioligand binding assays.
Rhesus H3 radioligand binding assay was performed using rhesus H3 receptor membranes (prepared as described above), [3H]-Methylhistamine (Perkin Elmer) and WGA SPA beads (wheat germ agglutinin scintillation proximity assay) beads (Amersham). The assay was performed in 96-well Opti-Plates (Packard). Each reaction contained 50 μl rhesus H3 membranes (20-30 μg total protein), 50 μl WGA SPA beads (0.1 μg) and 50 μl of 83 Ci/mmol [^3H]-Methylhistamine (final concentration 2 nM) and 50 μl of tested compound. The compounds of this invention and/or vehicle were diluted with binding buffer from 10 mM DMSO stocks. Assay plates were sealed with TopSeal (Perkin Elmer) and mixed on shaker (25° C., 1 hour). Assay plates were read on TopCount scintillation counter (Packard). Results were analyzed by Hill transformation and Ki values were determined by Cheng-Prusoff equation.
`C[C@H]1CCCN1C1CC[C@H](c2ccc(NC(=O)c3ccccc3OC(F)(F)F)cc2)C1` (stereo partly drawn) [Example 35, N-{4-[(S)-3-((S)-2-Methyl-pyrrolidin-1-yl)-cyclopentyl]-phenyl}-2-trifluoromethoxy-benzamide] returned a Ki of 136 nM. `C[C@H]1CCCN1C1CC[C@H](c2ccc(NC(=O)c3ccc(OC(F)(F)F)cc3)cc2)C1` (stereo partly drawn) [Example 36, N-{4-[(S)-3-((S)-2-Methyl-pyrrolidin-1-yl)-cyclopentyl]-phenyl}-4-trifluoromethoxy-benzamide]: the affinity corresponds to a Ki of 48.5 nM.

The compound `C[C@H]1CCCN1C1CC[C@H](c2ccc(NC(=O)Cc3ccccc3)cc2)C1` (stereo partly drawn) [Example 37, N-{4-[(S)-3-((S)-2-Methyl-pyrrolidin-1-yl)-cyclopentyl]-phenyl}-2-phenyl-acetamide] registered a Ki of 71.4 nM. `CC1CCCN1C1CC[C@H](c2ccc(NC(=O)OCc3ccccc3)cc2)C1` (stereo partly drawn) [Intermediate (10), {4-[(S)-3-(2-Methyl-pyrrolidin-1-yl)-cyclopentyl]-phenyl}-carbamic acid benzyl ester] displayed a Ki of 65.4 nM.
